In test [1] the test system is Mus musculus. Kind of test: Antidepressant activity in Mus musculus Kunming (mouse) assessed as immobility time at 40 mg/kg, po administered 30 min prior to testing measured for 6 min by forced swimming test (reference value: 177.67 +/- 10.88 secs). It counts as functional.
The subject of test [2] is Mus musculus. Description: Antidepressant activity in Mus musculus Kunming (mouse) assessed as decrease in immobility time at 40 mg/kg, po administered 30 min prior to testing measured for 6 min by tail suspension test (reference value: 110.67 +/- 11.52 secs). It counts as functional.

The source made the active and inactive calls. No cut-off for these calls is given here.

On to `CCCCCCOc1ccc2c(c1)CCc1nnnn1-2`, for which the Time in the test with Mus musculus [1] came out at 133.5 s.
For the compound `Brc1ccccc1COc1ccc2c(c1)CCc1nnnn1-2`, the Time with Mus musculus [1] turned out to be 65.17 s; in the test with Mus musculus [2], 20 s.
Consider `Fc1ccc(COc2ccc3c(c2)CCc2nnnn2-3)cc1`, for which the Time in the test with Mus musculus [1] is recorded as 65.17 s.
On to `CCCCCCCOc1ccc2c(c1)CCc1nnnn1-2`, for which the figures for the Time in the test with Mus musculus [1] and in the test with Mus musculus [2] were 170.5 s and 20 s, respectively.
Turning to `Clc1ccccc1COc1ccc2c(c1)CCc1nnnn1-2`, the results for the Time in the test on Mus musculus [1] and in the test on Mus musculus [2] were 65.17 s and 20 s, respectively.
On to `Clc1cccc(COc2ccc3c(c2)CCc2nnnn2-3)c1`, for which the Time with Mus musculus [1] amounted to 65.17 s.
As for `COc1ccc(COc2ccc3c(c2)CCc2nnnn2-3)cc1`, the Time in the test on Mus musculus [1] is 65.17 s; in the test with Mus musculus [2], 20 s.
Consider `Nc1ccc(COc2ccc3c(c2)CCc2nnnn2-3)cc1`, for which the Time was determined as 178 s in the test with Mus musculus [1] and 98.5 s in the test with Mus musculus [2].
On to `Brc1cccc(COc2ccc3c(c2)CCc2nnnn2-3)c1`, for which the Time in the test with Mus musculus [2] worked out at 20 s.
`Fc1cccc(COc2ccc3c(c2)CCc2nnnn2-3)c1`: the Time with Mus musculus [1] is 65.17 s; in the test with Mus musculus [2], 20 s.
Consider `Cc1ccc(COc2ccc3c(c2)CCc2nnnn2-3)cc1`, for which the Time in the test on Mus musculus [1] was 65.17 s.
As for `Fc1ccccc1COc1ccc2c(c1)CCc1nnnn1-2`, in the test with Mus musculus [2], the Time is given as 20 s.
Consider `CCCCCCCCOc1ccc2c(c1)CCc1nnnn1-2`, for which the Time in the test with Mus musculus [1] came to 172.83 s; in the test on Mus musculus [2] it was 107.5 s.
In the same order, the values of `CCOc1ccc2c(c1)CCc1nnnn1-2` are 179.83 s and 108.17 s.
Consider `CCCCCOc1ccc2c(c1)CCc1nnnn1-2`, for which the Time with Mus musculus [1] was 135.67 s; in the test with Mus musculus [2] it was 20 s.
On to `CNCCC(Oc1ccc(C(F)(F)F)cc1)c1ccccc1` (configuration not stated) [FLUOXETINE], for which the Time with Mus musculus [1] is 93.17 s. Further, the outcome with Mus musculus [2] was Active.
Consider `CCCOc1ccc2c(c1)CCc1nnnn1-2`, for which the Time is listed as 181.5 s in the test with Mus musculus [1] and 93 s with Mus musculus [2].
Regarding `CCCCOc1ccc2c(c1)CCc1nnnn1-2`, in the test on Mus musculus [2], the Time amounted to 20 s.
With `c1ccc(COc2ccc3c(c2)CCc2nnnn2-3)cc1`, the Time turned out to be 95.17 s with Mus musculus [1] and 20 s in the test on Mus musculus [2].
With `Clc1ccc(COc2ccc3c(c2)CCc2nnnn2-3)cc1`, the Time in the test with Mus musculus [2] stood at 20 s.

The record behind these values is ChEMBL document CHEMBL3045578, “Synthesis and study of the antidepressant activity of novel 4,5-dihydro-7-alkoxy(phenoxy)-tetrazolo[1,5-a]quinoline derivatives” (2012).
